According to article PMC8839448, “Novel Pyridothienopyrimidine Derivatives: Design, Synthesis and Biological Evaluation as Antimicrobial and Anticancer Agents” (Molecules, 2022):
Values after ≈ are worked out from the molar mass of the structure shown.

Assays:
[1] = system: Salmonella typhimurium 14028; experiment: In vitro antibacterial activity, MIC by broth dilution; assay type: cell-based; settings: Salmonella enterica, Gram −ve bacteria, read-out: MIC S. typhimurium
[2] = system: five bacterial and five fungal strains; experiment: Antimicrobial MIC, range over bacterial and fungal strains; assay type: cell-based; settings: for MIC range of the reference drugs: range over strains; for MIC range, antibacterial and antifungal: range over bacterial and fungal strains
[3] = system: Staphylococcus aureus 25923; experiment: In vitro antibacterial activity, MIC by broth dilution; assay type: cell-based; settings: Gram +ve bacteria, read-out: MIC S. aureus
Escherichia coli 8739 = experiment: as above; assay type: cell-based; settings: Gram −ve bacteria
Bacillus subtilis 6633 = experiment: as above; assay type: cell-based; settings: Gram +ve bacteria, read-out: MIC B. subtilis
Bacillus cereus 33018 = experiment: as above; assay type: cell-based; settings: Gram +ve bacteria, read-out: MIC B. cereus
five bacterial strains = experiment: Antibacterial MIC, range over the panel; assay type: cell-based
Aspergillus flavus = experiment: In vitro antifungal activity, MIC by broth dilution; assay type: cell-based; settings: fungi
[4] = system: Saccharomycese cerevisiae; experiment: as above; assay type: cell-based; settings: Saccharomyces cerevisiae, yeast, read-out: MIC S. cerevisiae
Candida albicans 10231 = experiment: as above; assay type: cell-based; settings: yeast, read-out: MIC C. albicans
[5] = system: all the tested yeasts and fungi strains; experiment: Antifungal MIC, range over the panel; assay type: cell-based
Candida tropicals 750 = experiment: In vitro antifungal activity, MIC by broth dilution; assay type: cell-based; settings: yeast, read-out: MIC C. tropicals
[6] = system: Aspergillus niger EM77 (KF774181); experiment: as above; assay type: cell-based; settings: fungi
[7] = system: hepatocellular carcinoma (HepG2) cells; experiment: Cytotoxicity, MTT assay; assay type: cell-based; settings: Homo sapiens, read-out: Cytotoxic activity IC50 HepG2
EGFR kinase = EGFR kinase (Homo sapiens, UniProt P00533); experiment: In vitro EGFR kinase inhibitory assay (Kinase-Glo MAX kit); settings: EGFR IC50, EGFR kinase assay kit, triplicate, ± SD
Method: The assay kit is designed to measure EGFR Kinase activity for screening applications using Kinase-Glo® MAX as a detection reagent. The luminescence was measured using a microplate reader (Infinite M200 microplate reader, Tecan, Männedorf, Switzerland) [54]. All assays were performed in triplicate and the relative inhibition (%) of inhibitors was then calculated via comparison with the control with no inhibitor.
In vitro EGFR kinase assay
The assay Kit is designed to measure EGFR Kinase
activity for screening applications using Kinase-Glo® MAX as a detection reagent
using Kinase-Glo® MAX as a detection reagent. Thaw 5x Kinase Buffer 1: ATP and
PTK substrate Poly (Glu:Tyr 4:1) (10 mg/ml) kinase was provided. Then the master
mixture was prepared: N wells x (6 μl 5x Kinase Buffer 1 + 1 µl ATP (500 µM) + 1
µl PTK substrate Poly (Glu:Tyr 4:1) (10 mg/ml)+ 17 μl water) and 25 μl of the
mixture was added to every well. The tested compounds were dissolved in DMSO,
well labeled as “Positive Control", 5 μl of the same solution of the reference drug
erlotinib and “Blank”, 5 μl of the same solution without inhibitor (Inhibitor buffer).
ml of 1x Kinase Buffer 1) was prepared by mixing 600 µl of 5x Kinase Buffer 1 with
The reaction initiated by adding 20 µl of diluted EGFR enzyme to the wells designated “Positive Control” and "Test Inhibitor Control". Incubate at 30°C for 40
minutes. Thaw Kinase-G lo Max reagent. After the 40 minute reaction, 50 µl of
Kinase-Glo Max reagent was added to each well. The plate was covered with
aluminum foil and incubate at room temperature for 15 minutes. Then the
luminescence was measured using the microplate reader (Infinite M200 microplate
reader, Tecan, Männedorf, Switzerland). All assays were performed in triplicate. The
relative inhibition (%) of inhibitors were then calculated compared to the control with
no inhibitor. Then the IC50 values and their standard deviation (SD) for the tested
compounds and the reference drug were determined in (nM).

[8] = system: breast cancer (MCF-7) cells; experiment: Cytotoxicity, MTT assay; assay type: cell-based, human; settings: Homo sapiens, MCF7, MCF7 cells, read-out: Cytotoxic activity IC50 MCF7
[9] = Cytotoxicity against normal cells, MTT assay; settings: human, WISH normal cells
From the text: The cytotoxicity was estimated as IC50 in μM for the tested compounds and the reference drug doxorubicin, and are listed in Table 3.

[10] = system: HepG2 and MCF-7 cancer cell lines; experiment: Cytotoxicity, MTT assay, range over both cancer cell lines; assay type: cell-based, human; settings: for IC50: Homo sapiens, range over HepG2 and MCF-7, read-out: IC50 range, cytotoxic activity against both cell lines
E. coli = settings: Figure 1, reported agents; ref [21],[22],[33],[34]; cited from earlier work
S. aureus = settings: Figure 1, reported agents; ref [21],[22],[33],[34]; cited from earlier work
HepG2 and MCF-7 = settings: Figure 1, reported agents; ref [21],[22],[33],[34]; read-out: IC50 range HepG2 and MCF-7; cited from earlier work
B. cereus = settings: Figure 1, reported agents; ref [21],[22],[33],[34]; cited from earlier work
S. typhimurium = settings: Figure 1, reported agents; ref [21],[22],[33],[34]; cited from earlier work

Sequence of EGFR kinase (P00533 25-1210): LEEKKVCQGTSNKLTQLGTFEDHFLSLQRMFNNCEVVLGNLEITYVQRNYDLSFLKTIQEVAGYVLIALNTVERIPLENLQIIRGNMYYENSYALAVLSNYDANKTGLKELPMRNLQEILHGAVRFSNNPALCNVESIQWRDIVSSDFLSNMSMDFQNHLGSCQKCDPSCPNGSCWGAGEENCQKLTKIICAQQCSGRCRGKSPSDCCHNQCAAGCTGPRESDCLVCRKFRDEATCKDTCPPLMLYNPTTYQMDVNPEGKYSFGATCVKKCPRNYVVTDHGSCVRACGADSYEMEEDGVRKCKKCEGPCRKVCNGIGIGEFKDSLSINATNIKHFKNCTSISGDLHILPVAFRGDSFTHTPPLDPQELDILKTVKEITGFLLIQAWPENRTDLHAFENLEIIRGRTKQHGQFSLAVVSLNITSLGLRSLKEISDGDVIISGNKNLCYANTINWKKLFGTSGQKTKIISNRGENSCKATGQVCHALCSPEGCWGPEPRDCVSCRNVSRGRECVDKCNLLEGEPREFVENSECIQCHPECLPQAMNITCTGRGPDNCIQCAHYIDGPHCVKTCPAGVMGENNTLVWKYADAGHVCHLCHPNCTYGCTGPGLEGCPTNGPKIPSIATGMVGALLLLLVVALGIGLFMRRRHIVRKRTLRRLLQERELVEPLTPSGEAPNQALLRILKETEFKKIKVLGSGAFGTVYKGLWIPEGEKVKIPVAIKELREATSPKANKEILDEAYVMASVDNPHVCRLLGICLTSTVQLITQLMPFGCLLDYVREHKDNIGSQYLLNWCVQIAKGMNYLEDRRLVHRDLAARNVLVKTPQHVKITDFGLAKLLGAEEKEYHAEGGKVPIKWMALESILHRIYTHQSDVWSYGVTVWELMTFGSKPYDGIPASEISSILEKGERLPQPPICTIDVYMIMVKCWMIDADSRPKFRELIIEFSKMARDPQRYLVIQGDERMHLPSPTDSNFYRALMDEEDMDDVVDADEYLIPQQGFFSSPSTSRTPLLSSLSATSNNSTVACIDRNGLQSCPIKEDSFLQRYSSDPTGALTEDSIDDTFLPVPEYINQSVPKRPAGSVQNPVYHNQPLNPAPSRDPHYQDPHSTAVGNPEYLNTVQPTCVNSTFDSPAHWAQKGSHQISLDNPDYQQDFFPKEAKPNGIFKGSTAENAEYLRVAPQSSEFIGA

SMILES	MIC [1] [µg/mL]	MIC [3] [µg/mL]	MIC (Escherichia coli 8739) [µg/mL]	MIC (Bacillus subtilis 6633) [µg/mL]	MIC (Bacillus cereus 33018) [µg/mL]	MIC (Aspergillus flavus) [µg/mL]	MIC [4] [µg/mL]	MIC (Candida albicans 10231) [µg/mL]	MIC range against the tested yeasts and fungi strains [5] [µg/mL]	MIC (Candida tropicals 750) [µg/mL]	MIC [6] [µg/mL]	IC50 [7] [µM]	IC50 (EGFR kinase) [µM]	IC50 [8] [µM]	IC50 [9] [µM]	melting point [°C]	IC50 [10] [µM]	further results
CC1(C)S[C@@H]2[C@H](NC(=O)[C@H](N)c3ccc(O)cc3)C(=O)N2[C@H]1C(=O)O [Amoxicillin, amoxicillin trihydrate, reference compound]	16	4	8	8	16	–	–	–	–	–	–	–	–	–	–	–	–	MIC range of the reference drugs [2]: 4 to 16 µM; MIC range against the tested bacterial strains (five bacterial strains): 4 to 16 µg/mL
Clc1ccccc1C(c1ccccc1)(c1ccccc1)n1ccnc1 [Clotrimazole, clotrimazole, reference compound]	–	–	–	–	–	8 (≈ 23.2 µM)	8 (≈ 23.2 µM)	16 (≈ 46.4 µM)	4 to 16	8 (≈ 23.2 µM)	8 (≈ 23.2 µM)	–	–	–	–	–	–	MIC range of the reference drugs [2]: 4 to 16 µM
Cc1cc(C)c2c(n1)sc1c(Cl)nc(Cl)nc12 [Compound 3a, 2,4-Dichloro-7,9-dimethylpyrido[3′,2′:4,5]thieno[3,2-d]pyrimidine]	16 (≈ 56.3 µM)	4 (≈ 14.1 µM)	8 (≈ 28.2 µM)	4 (≈ 14.1 µM)	8 (≈ 28.2 µM)	8 (≈ 28.2 µM)	8 (≈ 28.2 µM)	16 (≈ 56.3 µM)	4 to 16	8 (≈ 28.2 µM)	8 (≈ 28.2 µM)	2.31 ± 0.35	0.0173 ± 0.00024	7.24 ± 0.64	417 ± 15.2	250 to 251	–	MIC range, antibacterial and antifungal [2]: 4 to 16 µg/mL
Cc1ccc(-c2cc(-c3ccccc3)nc3sc4c(=O)[nH]c(CN5CCOCC5)nc4c23)cc1 [Compound 5a, 2-(Morpholinomethyl)-7-phenyl-9-(p-tolyl)pyrido[3′,2′:4,5]thieno[3,2-d]pyrimidin-4(3H)-one]	16 (≈ 34.1 µM)	8 (≈ 17.1 µM)	8 (≈ 17.1 µM)	8 (≈ 17.1 µM)	16 (≈ 34.1 µM)	8 (≈ 17.1 µM)	8 (≈ 17.1 µM)	16 (≈ 34.1 µM)	4 to 16	8 (≈ 17.1 µM)	16 (≈ 34.1 µM)	1.99 ± 0.09	0.00966 ± 8e-05	2.79 ± 0.18	408 ± 15.9	245	1.17 to 2.79	MIC range, antibacterial and antifungal [2]: 4 to 16 µg/mL; MIC range against the tested bacterial strains (five bacterial strains): 8 to 16 µg/mL
Cc1cc(C)c2c3c(sc2n1)C(=O)NC1(CCCC1)N3 [Compound 6a, 7′,9′-Dimethyl-1′H-spiro[cyclopentane-1,2′-pyrido[3′,2′:4,5]thieno[3,2-d]pyrimidin]-4′(3′H)-one]	16 (≈ 55.7 µM)	32 (≈ 111 µM)	32 (≈ 111 µM)	16 (≈ 55.7 µM)	8 (≈ 27.8 µM)	64 (≈ 223 µM)	32 (≈ 111 µM)	64 (≈ 223 µM)	–	16 (≈ 55.7 µM)	32 (≈ 111 µM)	52.2 ± 1.45	–	77.4 ± 3.62	–	245 to 246	12.1 to 77.4	MIC range against the tested bacterial strains (five bacterial strains): 8 to 32 µg/mL
Cc1cc(C)c2c3c(sc2n1)C(=O)NC1(CCCCC1)N3 [Compound 6c, 7′,9′-Dimethyl-1′H-spiro[cyclohexane-1,2′-pyrido[3′,2′:4,5]thieno[3,2-d]pyrimidin]-4′(3′H)-one]	16 (≈ 53.1 µM)	4 (≈ 13.3 µM)	8 (≈ 26.5 µM)	4 (≈ 13.3 µM)	8 (≈ 26.5 µM)	4 (≈ 13.3 µM)	16 (≈ 53.1 µM)	16 (≈ 53.1 µM)	4 to 16	4 (≈ 13.3 µM)	8 (≈ 26.5 µM)	12.1 ± 0.33	–	22.2 ± 0.67	–	290 to 291	12.1 to 77.4	–
Cc1ccc(-c2cc(-c3ccccc3)nc3sc4c(c23)NC2(CCCC2)N=C4SCC(N)=O)cc1 [Compound 8b, 2-((7′-Phenyl-9′-(p-tolyl)-1′H-spiro[cyclopentane-1,2′-pyrido[3′,2′:4,5]thieno[3,2-d]pyrimidin]-4′-yl)sulfanyl)acetamide]	16 (≈ 32.1 µM)	4 (≈ 8.02 µM)	8 (≈ 16 µM)	8 (≈ 16 µM)	16 (≈ 32.1 µM)	8 (≈ 16 µM)	16 (≈ 32.1 µM)	8 (≈ 16 µM)	4 to 16	16 (≈ 32.1 µM)	8 (≈ 16 µM)	2.79 ± 0.08	0.03844 ± 0.00025	13.5 ± 0.76	401 ± 17.3	148 to 149	–	–
Cc1ccc(-c2cc(-c3ccccc3)nc3sc4c(c23)NC2(CCCC2)N=C4SCC2CO2)cc1 (stereo not drawn) [Compound 9b, 4′-((Oxiran-2-ylmethyl)sulfanyl)-7′-phenyl-9′-(p-tolyl)-1′H-spiro[cyclopentane-1,2′-pyrido[3′,2′:4,5]thieno[3,2-d]pyrimidine]]	16 (≈ 32.1 µM)	4 (≈ 8.04 µM)	4 (≈ 8.04 µM)	4 (≈ 8.04 µM)	8 (≈ 16.1 µM)	8 (≈ 16.1 µM)	8 (≈ 16.1 µM)	4 (≈ 8.04 µM)	4 to 16	4 (≈ 8.04 µM)	8 (≈ 16.1 µM)	1.17 ± 0.09	0.00727 ± 0.00011	1.52 ± 0.08	418 ± 14.1	120	1.17 to 2.79	MIC range, antibacterial and antifungal [2]: 4 to 16 µg/mL; Fold higher growth inhibition than doxorubicin ([10]; HepG2 and MCF-7, relative to doxorubicin): 2–3 fold
CCOC(=O)c1sc2nc(-c3ccc(OC)cc3)cc(-c3cccs3)c2c1N [III]	–	–	–	–	–	–	–	–	–	–	–	–	–	–	–	–	–	MIC E. coli (E. coli): 7.80 µg/mL (≈ 19 µM); MIC S. aureus (S. aureus): 7.80 µg/mL (≈ 19 µM); IC50 (HepG2 and MCF-7): 33.2 to 34.8 µM
COc1ccc(-c2cc(-c3ccco3)nc3sc(C(N)=O)c(N=C4CCCCC4)c23)cc1 [II]	–	–	–	–	–	–	–	–	–	–	–	–	–	–	–	–	–	MIC B. cereus (B. cereus): 15.60 µg/mL (≈ 35 µM); MIC E. coli (E. coli): 15.60 µg/mL (≈ 35 µM); MIC S. aureus (S. aureus): 15.60 µg/mL (≈ 35 µM)
NC(=O)c1sc2nc(-c3ccco3)cc(-c3cccs3)c2c1N [I]	–	–	–	–	–	–	–	–	–	–	–	–	–	–	–	–	–	MIC E. coli (E. coli): 15.60 µg/mL (≈ 45.7 µM); MIC S. typhimurium (S. typhimurium): 15.60 µg/mL (≈ 45.7 µM)
